Data as given in patent publication US8377967B2, “Piperidine derivative” (Nippon Zoki Pharmaceutical Co., Ltd., priority 2008, dated 2013).

Key:
[1] = system: histamine-induced vascular hyperpermeability reaction; test: Rat histamine-induced vascular hyperpermeability reaction (in vivo antihistamine action); conditions: SD male rat, oral administration 1 hour before intracutaneous histamine, leaked Evans Blue pigment
Procedure: An SD male rat (SPF) of 180 g in weight was previously fed for one week or more by allowing the rat to take a solid feed and tap water ad libitum, under the environment setting of a temperature of 22° C., humidity of 55% and an artificial illumination of 12 hours a day (light phase 8 am to 8 pm), and the rat was fasted overnight to be used for the experiment. Histamine•dihydrochloride (hereinafter referred to as histamine) and Evans Blue were used by dissolving each in physiological saline upon use. A substance to be tested was dissolved in water for injection or suspended in 0.5% carboxymethyl cellulose sodium, and the rat was orally administered with the solution or suspension (dose volume: 5 mL/kg body weight). After 1 hour from the administration, the physiological saline and the histamine solution were each intracutaneously injected to two locations (20 μg/0.05 ml/location) each on a back part of the rat of which hair was sheared with an electric clipper while anesthetizing with an ether. A 0.5% Evans Blue-containing physiological saline was injected intravenously to the tail of the rat (1 mL/200 g body weight) immediately before the intracutaneous injection of the histamine.
After 30 minutes, the animal was decapitated, and allowed to bleed lethally, and the skin was removed to measure an amount of leaked pigment in the blue-stained portion. The measurement of the amount of leaked pigment was carried out as follows. Skins of the pigment leaking site were cut out at two locations, 1 mL of a 2 mol/L aqueous potassium hydroxide solution was added thereto in a test tube, and the test tube was allowed to stand overnight at 37° C. to dissolve. Thereafter, 6 mL of a 1:3 mixed solution of 0.67 mol/L phosphoric acid and acetone was added to the solution, and the mixture was vigorously shaken for 10 minutes. Thereafter, the mixture was filtered, and the absorbance of the filtrate at 620 nm was measured. The absorbance obtained from the two locations of the sites injected with physiological saline, as blank value, was used for a compensation. The amount of leaked pigment was calculated from the calibration curve of Evans Blue at 620 nm.

cerebral H1 receptor = molecular target: T1, cerebral H1 receptor (Mus musculus, UniProt P70174); test: Murine cerebral H1 receptor occupying content (ex vivo); format: in vivo; conditions: for ED50: ICR male mouse, oral administration, brain excised after 1 hour, 3H-pyrilamine binding in brain homogenate, larger = lower brain transfer, read-out: ID50 (the source's name); for ID50 (mg/kg)/ ED50 (mg/kg): ID50 of cerebral receptor binding test (Table 20) divided by ED50 of vascular hyperpermeability test (Table 19)
T1 construct: the entire brain, except for cerebellum and medulla oblongatae, was rapidly excised; from tissue; host or cells: brain homogenate (without cerebellum and medulla oblongata) of orally dosed ICR male mice
Procedure: A 6-week-old ICR male mouse was previously fed for one week or more by allowing the mouse to take a solid feed and tap water ad libitum, under the environment setting of a temperature of 22° C., humidity of 55% and an artificial illumination of 12 hours a day, and the mouse was fasted overnight to be used for the experiment. A substance to be tested was dissolved with water for injection or suspended in 0.5% carboxymethyl cellulose solution, and the solution or suspension was orally administered to the mouse (dose volume: 0.1 mL/10 g body weight). After 1 hour from the oral administration, the mouse was decapitated, and the entire brain, except for cerebellum and medulla oblongatae, was rapidly excised. The excised brain tissue was homogenized with Polytron (manufactured by Kinematica) in an ice-cooled 50 mmol/L phosphate buffered saline (pH 7.4, 100 mg/1.9 mL).
To a test tube for reaction (TPX-Tube) were added 180 μL of the brain homogenate, and 10 μL of ^3H-pyrilamine solution (final concentration: 2 nmol/L) and 10 μL of a non-labeled pyrilamine solution (final concentration: 200 μmol/L) or a 50 mmol/L phosphate buffered saline, and the mixture was incubated at room temperature for 45 minutes, and 2.0 mL of an ice-cooled, 50 mmol/L phosphate buffered saline was then added thereto to stop the reaction. The reaction mixture was filtered with a GF/B filter (manufactured by […]), and the […] was placed in a vial and dried overnight at 60 degrees. After drying, 10 mL of a scintillator (AL-1, toluene-based, manufactured by DOJINDO LABORATORIES) was added to the product, and the disintegration per minute (dpm) was measured with a liquid scintillation counter (manufactured by Packard, U.S.A., TRI-CARB 2700TR) (5 minutes/vial).

T1 sequence (P70174 whole entry): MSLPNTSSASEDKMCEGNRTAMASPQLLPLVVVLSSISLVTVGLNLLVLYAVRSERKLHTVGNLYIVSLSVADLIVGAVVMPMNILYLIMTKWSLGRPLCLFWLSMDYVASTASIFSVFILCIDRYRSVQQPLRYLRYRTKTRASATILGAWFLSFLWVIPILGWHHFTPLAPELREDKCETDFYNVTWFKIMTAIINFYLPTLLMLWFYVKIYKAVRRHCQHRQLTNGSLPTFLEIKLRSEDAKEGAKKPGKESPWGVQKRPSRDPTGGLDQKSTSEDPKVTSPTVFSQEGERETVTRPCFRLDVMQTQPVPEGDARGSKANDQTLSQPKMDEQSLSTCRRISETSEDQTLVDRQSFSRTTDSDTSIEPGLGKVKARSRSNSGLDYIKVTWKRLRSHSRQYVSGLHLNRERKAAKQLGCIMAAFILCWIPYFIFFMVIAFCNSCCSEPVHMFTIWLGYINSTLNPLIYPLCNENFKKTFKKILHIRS

| Structure (SMILES) | ED50 [1] [mg/kg] | ED50 (cerebral H1 receptor) [mg/kg] | ID50 (mg/kg)/ ED50 (mg/kg) (cerebral H1 receptor) |
| --- | --- | --- | --- |
| O=C(O)CCc1cc2c(s1)C=Cc1ccccc1C2=C1CCNCC1 [Compound 209, 3-(4-Piperidin-4-ylidene-4H-1-thiabenzo[f]azulen-2-yl)propionic acid] | 0.42 | > 200 | >476.2 |
| CC(=O)CCN1CCC(=C2c3cc(CC(=O)O)ccc3OCc3ccsc32)CC1 [Compound 192, {4-[1-(3-Oxobutyl)piperidin-4-ylidene]-4,10-dihydro-9-oxa-3-thiabenzo[f]azulen-6-yl}acetic acid] | 0.312 | 63.8 | 204.5 |
| CN1CCC(=C2c3cc(SC(C)(C)C(=O)O)ccc3OCc3ccsc32)CC1.Cl [Compound 190, 2-Methyl-2-[4-(1-methylpiperidin-4-ylidene)-4,10-dihydro-9-oxa-3-thiabenzo[f]azulen-6-ylsulfanyl]propionic acid hydrochloride] | 0.419 | 73.2 | 174.7 |
| O=C(O)Cc1ccc2c(c1)C(=C1CCN(CCO)CC1)c1sccc1CO2 [Compound 119, {4-[1-(2-Hydroxyethyl)piperidin-4-ylidene]-4,10-dihydro-9-oxa-3-thiabenzo[f]azulen-6-yl}acetic acid] | 1.1 | 74.5 | 67.7 |
| CN1CCC(=C2c3cc(C=CC(=O)O)ccc3OCc3ccsc32)CC1 [Compound 35, 3-[4-(1-Methylpiperidin-4-ylidene)-4,10-dihydro-9-oxa-3-thiabenzo[f]azulen-6-yl]acrylic acid] | 0.28 | 28.4 | 101.4 |
| CSCCCN1CCC(=C2c3cc(CC(=O)O)ccc3OCc3ccsc32)CC1 [Compound 199, {4-[1-(3-Methylsulfanylpropyl)piperidin-4-ylidene]-4,10-dihydro-9-oxa-3-thiabenzo[f]azulen-6-yl}acetic acid] | ~0.01 | 4.5 | 450.0 |
| CC(C)N1CCC(=C2c3cc(CC(=O)O)ccc3OCc3ccsc32)CC1 [Compound 132, [4-(1-Isopropylpiperidin-4-ylidene)-4,10-dihydro-9-oxa-3-thiabenzo[f]azulen-6-yl]acetic acid] | 0.17 | 37.5 | 220.6 |
| CC(=O)CCCN1CCC(=C2c3cc(CCCC(=O)O)ccc3OCc3ccsc32)CC1 [Compound 188, 4-{4-[1-(4-Oxopentyl)piperidin-4-ylidene]-4,10-dihydro-9-oxa-3-thiabenzo[f]azulen-6-yl}butyric acid] | ~0.3 | 23 | 76.7 |
| CCN1CCC(=C2c3ccccc3CCc3sc(C(C)(C)C(=O)O)cc32)CC1 [Compound 155, 2-[4-(1-Ethylpiperidin-4-ylidene)-9,10-dihydro-4H-1-thiabenzo[f]azulen-2-yl]-2-methylpropionic acid] | 0.334 | 66.6 | 199.4 |
| CN1CCC(=C2c3cc(C(C)(C)C(=O)O)ccc3OCc3ccsc32)CC1 [Compound 68, 2-Methyl-2-[4-(1-Methylpiperidin-4-ylidene)-4,10-dihydro-9-oxa-3-thiabenzo[f]azulen-6-yl]propionic acid] | 0.13 | 14.6 | 112.3 |
| CN1CCC(=C2c3cc(C(=O)O)ccc3OCc3ccsc32)CC1 [Compound 26, [4-(1-Methylpiperidin-4-ylidene)-4,10-dihydro-9-oxa-3-thiabenzo[f]azulen-6-yl]carboxylic acid] | 0.059 | 4.8 | 81.4 |
| CCN1CCC(=C2c3cc(CC(=O)O)ccc3OCc3ccsc32)CC1 [Compound 128, [4-(1-Ethylpiperidin-4-ylidene)-4,10-dihydro-9-oxa-3-thiabenzo[f]azulen-6-yl]acetic acid] | ~0.1 | 7.45 | 74.5 |
| CC(OC(=O)Cc1ccc2c(c1)C(=C1CCNCC1)c1sccc1CO2)OC(=O)OC1CCCCC1.Cl (stereo not drawn) [Compound 180, 1-Cyclohexyloxycarbonyloxyethyl (4-piperidin-4-ylidene-4,10-dihydro-9-oxa-3-thiabenzo[f]azulen-6-yl)acetate hydrochloride] | 1.55 | > 200 | >129.0 |
| COC(=O)Cc1ccc2c(c1)C(=C1CCNCC1)c1sccc1CO2.Cl [Compound 126, Methyl (4-piperidin-4-ylidene-4,10-dihydro-9-oxa-3-thiabenzo[f]azulen-6-yl)acetate hydrochloride] | 0.446 | 237 | 530.7 |
| CC(=O)CN1CCC(=C2c3cc(CC(=O)O)ccc3OCc3ccsc32)CC1 [Compound 168, {4-[1-(2-Oxopropyl)piperidin-4-ylidene]-4,10-dihydro-9-oxa-3-thiabenzo[f]azulen-6-yl}acetic acid] | 0.264 | 10.4 | 39.4 |
| CN1CCC(=C2c3ccccc3CCc3sc(C(C)(C)C(=O)O)cc32)CC1 [Compound 65, 2-Methyl-2-[4-(1-methylpiperidin-4-ylidene)-9,10-dihydro-4H-1-thiabenzo[f]azulen-2-yl]propionic acid] | 0.14 | 19.5 | 139.3 |
| CCOC(=O)C(C)(C)c1cc2c(s1)CCc1ccccc1C2=C1CCNCC1.Cl [Compound 152, Ethyl 2-methyl-2-(4-piperidin-4-ylidene-9,10-dihydro-4H-1-thiabenzo[f]azulen-2-yl)propionate hydrochloride] | 1.49 | 199 | 133.8 |
| O=C(O)Cc1ccc2c(c1)C(=C1CCN(CCCO)CC1)c1sccc1CO2 [Compound 139, {4-[1-(3-Hydroxypropyl)piperidin-4-ylidene]-4,10-dihydro-9-oxa-3-thiabenzo[f]azulen-6-yl}acetic acid] | 2.24 | > 200 | >89.3 |
| CN1CCC(=C2c3ccccc3CC(=O)c3sc(C=CC(=O)O)cc32)CC1 [Compound 48, 3-[4-(1-Methylpiperidin-4-ylidene)-10-oxo-9,10-dihydro-4H-1-thiabenzo[f]azulen-2-yl]acrylic acid] | 0.68 | 95.5 | 140.4 |
| CC(=O)CCCN1CCC(=C2c3cc(CC(=O)O)ccc3OCc3ccsc32)CC1 [Compound 170, {4-[1-(4-Oxopentyl)piperidin-4-ylidene]-4,10-dihydro-9-oxa-3-thiabenzo[f]azulen-6-yl}acetic acid] | 0.614 | 70.3 | 114.5 |
| CCCOC(=O)Cc1ccc2c(c1)C(=C1CCNCC1)c1sccc1CO2.Cl [Compound 137, Propyl (4-piperidin-4-ylidene-4,10-dihydro-9-oxa-3-thiabenzo[f]azulen-6-yl)acetate hydrochloride] | 0.24 | > 200 | >833.3 |
| CN1CCC(=C2c3cc(CC(=O)O)ccc3OCc3ccsc32)CC1.Cl [Compound 54, [4-(1-Methylpiperidin-4-ylidene)-4,10-dihydro-9-oxa-3-thiabenzo[f]azulen-6-yl]acetic acid hydrochloride] | 0.027 | 9.3 | 344.4 |
